Where “and” joins values, the source holds several entries; their conditions need not be identical. Identical values can stand only once. Like-named read-outs stand apart in the source and are kept apart here. Where no end group is shown, it is not given here.
What was measured:
[1] = target: T1, α7-nAChR (Homo sapiens, UniProt P36544); experiment: biochemical; format: binding; conditions: for [125I]α-BTX binding compared with control maximum specific binding: Mean±SEM
T1 construct: host or cells: GH4-hα7 (rat pituitary tumor GH4 cells stably transfected with human α7-nAChR)
T1 sequence (P36544 23-502): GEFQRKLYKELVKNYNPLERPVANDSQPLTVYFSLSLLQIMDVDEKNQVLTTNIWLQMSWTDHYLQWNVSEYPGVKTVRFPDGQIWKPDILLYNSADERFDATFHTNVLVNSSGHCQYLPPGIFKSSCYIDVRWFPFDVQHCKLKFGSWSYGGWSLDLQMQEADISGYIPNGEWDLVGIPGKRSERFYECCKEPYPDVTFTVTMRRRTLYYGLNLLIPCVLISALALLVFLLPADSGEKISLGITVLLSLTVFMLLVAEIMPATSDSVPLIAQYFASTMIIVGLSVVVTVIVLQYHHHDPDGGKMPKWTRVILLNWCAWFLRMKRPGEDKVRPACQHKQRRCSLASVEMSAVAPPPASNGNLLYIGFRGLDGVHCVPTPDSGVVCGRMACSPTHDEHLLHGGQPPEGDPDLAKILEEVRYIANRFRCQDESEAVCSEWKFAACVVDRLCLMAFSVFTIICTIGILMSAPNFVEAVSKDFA
Protocol: (§1) For membrane binding experiments, confluent cells were scraped off 75 cm^2 culture plates into ice-cold lysis buffer (20 mM Tris-HCl, pH 7.0, 5 mM ethylenediaminetetraacetic acid (EDTA), and 1× protease inhibitor cocktail (Roche Diagnostics, Ltd.,West Sussex, UK). After pelleting by centrifugation for 10 min at 13,000 rpm, cells were resuspended in 7 ml ice-cold lysis buffer, lysed by Dounce homogenization, and then centrifuged at 1000×g for 10 min. Supernatant was removed and the extraction process repeated. The supernatants were combined and centrifuged at 50,000 rpm (70 Ti rotor) for 30 min (Beckman Ultracentrifuge). All centrifugations were carried out at 4°C. The pelleted membranes were resuspended in binding buffer (50 mM Tris-HCl, 120 mM NaCl, 5 mM KCl, 1 mM MgCl2, 2.5 mM CaCl2, pH 7.0) and protein concentration determined using the DC Protein Assay kit (Bio-Rad Laboratories, Ltd., Hemel Hempstead, UK). Binding assays were assembled on ice in borosilicate glass test tubes with 50–100 µg membrane protein in binding buffer in a final volume of 250 µl. Binding reactions were incubated at 4°C overnight, and then terminated by rapid vacuum filtration using a Brandel Cell Harvester onto Whatman GF/B glass fibre filters pre-soaked in 0.4% polyethylenimine. Saturation binding experiments were performed with [^125I]α-BTX concentrations ranging from 0.03–100 nM. Displacement binding experiments were performed with a constant [^125I]α-BTX concentration of 2.0 nM. Non-specific binding was determined with 10 µM MLA.
(§2) Ligand binding data were analyzed using GraphPad Prism 4.03 (GraphPad Software, Inc.) Saturation binding data were fitted by nonlinear regression with a hyperbolic function for a one-binding site model. Displacement binding data were fitted by nonlinear regression for a one-site binding competition model, unless otherwise noted. RT-PCR band density data was analysed using Student's t-test for comparison of individual means with control values and by one-way ANOVA followed by Tukey's multiple comparison test for comparison of test groups and effect of MLA inhibition effects.

[2] = system: α7-nAChR mRNA expression; experiment: RT-PCR analysis of α7-nAChR mRNA expression in GH4-hα7 cells; format: cell-based, human
Protocol: To assess the effects of T-AChE C-terminal peptides on α7-nAChR mRNA expression, total cellular RNA was isolated and analysed for gene-specific expression levels using reverse transcriptase PCR. Specifics of primer design and sequences used in RT-PCR experiments are described in the methods. […] Expression of the housekeeping gene glyceraldehyde 3-phosphate dehydrogenase (GAPDH) was used as a standard for comparative analysis. RT-PCR analysis was performed in control GH4-hα7 cells and those exposed to AChE peptides at concentrations ranging from 1 nM to 1 µM for 24 hr (Fig. 5A). […] A similar high level of α7-nAChR expression was achieved after treatment with only 1 nM T30.
as §2, with “Displacement binding data were fitted by nonlinear regression for a one-site binding competition model, unless otherwise noted.” left out
Primers for RNA analysis were designed using the Primer3 program and analysed for structural anomalies and dimer formation using NetPrimer software (Premier Biosoft International, Palo Alto, USA). […]

[3] = target: human alpha-7 nicotinic acetylcholine receptor (human) (UniProt P36544)
human alpha-7 nicotinic acetylcholine receptor (human), sequence (P36544 23-502): as above

[4] = target: human alpha-7 nicotinic acetylcholine receptor (human) (UniProt P36544); experiment: radioligand binding
[5] = target: T1, α7-nAChR; experiment: Acute live cell [125I]α-BTX binding in GH4-hα7 cells; conditions: for efficacy in competition with [125I]α-BTX for receptor binding sites: 10 µM peptide
Protocol: Initial experiments were performed to characterize the binding parameters of the human α7-nAChR heterologously expressed in the rat GH4-hα7 cell line using a live-cell binding method. Saturation binding was carried out with [^125I]alpha-bungarotoxin ([^125I]α-BTX) concentrations ranging from 0.03 nM to 100 nM. Non-specific binding was determined in the presence of 10 µM methyllycaconitine (MLA).
For live cell binding experiments, cells were seeded into 6-well plates at a density of 1×10^5 cells/well and allowed to recover for 24–48 hours before experimentation. Cells were treated with indicated peptides or α7-nAChR ligands for 30 min at 37°C in cell medium containing 1% FBS. Then [^125I]α-bungarotoxin ([^125I]α-BTX; 150 Ci/mmol) was added and cells were incubated at 37°C for a further 1.5 hr. Cell layers were washed 3× with 2 ml serum-free DMEM, then 0.5 ml 1 M NaOH was added to each well to lyse cells. Cell lysates were transferred to 5 ml scintillation fluid and radioactivity was determined using a Beckman LS6000IC scintillation counter.
as §2

[6] = target: T1, α7-nAChR; experiment: Saturation binding on cell membranes after chronic 24 hr peptide treatment of GH4-hα7 cells; format: cell-based; conditions: 24 hr treatment with 100 nM peptide; read-out: Kd±SEM, receptor affinity for α-BTX
Protocol: as §1
as §2, with “Displacement binding data were fitted by nonlinear regression for a one-site binding competition model, unless otherwise noted.” left out

[7] = target: T2, human alpha-7 nicotinic acetylcholine receptor (human, UniProt P36544 23-502); experiment: radioligand binding; conditions: one partner purified
T2 construct: human alpha-7 nicotinic acetylcholine receptor, heterologously expressed in the rat GH4-hα7 cell line; Used on live cells and as purified membranes of the same cell line; also called α7-nAChR; CHRNA7; source: on live cells and in purified cell membranes
T2 sequence (P36544 23-502): as above

[8] = target: T2, human alpha-7 nicotinic acetylcholine …; experiment: radioligand binding; conditions: one partner purified; remark: listed apart in the source
[9] = live cells, [125I]α-BTX displacement, read-out: Ki, high affinity site

CC(=O)OCC[N+](C)(C)C [ACh, acetylcholine] was tested. Which “decrease in specific binding efficacy in the presence of T30 compared with ligand alone” value (shortened to “decrease in specific binding efficacy”) ([1]; membranes, ligand at its EC50, varying concentrations of T30) did it give?
Its value is 18%.

How did the “decrease in specific binding efficacy” value [1] turn out when C[N+](C)(C)CCO [Choline, choline] was run?
Its value is 36%.

What about the IC50 ([1]; IC50±SEM) of the same molecule?
The IC50 was 123000 nM and 126000 nM and 225000 nM and 357000 nM and 737000 nM.

And the Ki ([1]; Ki±SEM)?
Its Ki is 85900 nM and 88900 nM and 157000 nM and 250000 nM and 515000 nM.

CCN1C[C@]2(COC(=O)c3ccccc3N3C(=O)C[C@H](C)C3=O)CC[C@H](OC)[C@@]34[C@@H]5C[C@H]6[C@H](OC)[C@@H]5[C@](O)(C[C@@H]6OC)[C@@](O)([C@@H](OC)[C@H]23)[C@@H]14 [MLA, methyllycaconitine] was tested. Which “α7-nAChR mRNA expression, relative band density” value [2] did it give?
The value was 1.58±0.12.

And the “decrease in specific binding efficacy” value [1]?
Its value is 24%.

And the IC50 ([1]; IC50)?
Its IC50 is 15.5 nM and 9.5 nM.

With AChE C-terminal peptide T14 as the molecule, how does the α7-nAChR mRNA expression by RT-PCR (relative band density against GAPDH) in GH4-hα7 cells after 24 hr with 1 nM to 1 µM T14 (relative band density) [3] read?
Its α7-nAChR mRNA expression by RT-PCR (relative band density against GAPDH) in GH4-hα7 cells after 24 hr with 1 nM to 1 µM T14 (relative band density) is 2.72.

Which results are given for AChE C-terminal peptide T30?
α7-nAChR mRNA expression by RT-PCR (relative band density against GAPDH) in GH4-hα7 cells after 24 hr with 1 nM to 1 µM T30 (relative band density) [3]: 2.98; Ki, high affinity site [4]: 0.0168 nM; Ki, second, lower affinity site [4]: 47.1 nM

With AEFHRWSSYMVHWK [T14] as the molecule, how does the “efficacy in competition with [125I]α-BTX for receptor binding sites” value ([5]; live cells) read?
Its value is “approximately 40%”.

What about the Ki [5, 9] of the same molecule?
The Ki was 0.653 ± 0.0126 nM.

And the “[125I]α-BTX binding compared with control maximum specific binding” value ([1]; membranes, 1 µM peptide)?
Its value is 90.11±3.5%.

What about the “[125I]α-BTX binding compared with control maximum specific binding” value ([1]; membranes, 10 µM peptide) of the same molecule?
Its value is 87.91±1.9%.

What about the Kd [6] of the same molecule?
Its Kd is 9.06 ± 0.93 nM.

How did the “efficacy in competition with [125I]α-BTX for receptor binding sites” value ([5]; live cells) turn out when KAEFHRWSSYMVHWKNQFDHYSKQERCSDL [T30] was run?
Its value is 70%.

What about the Ki [5, 9] of the same molecule?
The Ki was 0.0168 ± 0.0018 nM.

And the Ki ([5]; live cells, two-site competition model, read-out: Ki, second lower affinity site)?
Its Ki is 47.1 ± 2.8 nM.

What about the “[125I]α-BTX binding compared with control maximum specific binding” value ([1]; membranes, 1 µM peptide) of the same molecule?
The value was 110.9±3.6%.

And the “[125I]α-BTX binding compared with control maximum specific binding” value ([1]; membranes, 10 µM peptide)?
Its value is 117.3±4.9%.

And the Kd [6]?
Its Kd is 12 ± 1.39 nM.

Which Kd [6] does the source give for NQFDHYSKQERCSDL [T15] here?
Its Kd is 4.91 ± 0.53 nM.

What does the source list for “[^125I]alpha-bungarotoxin [[^125I]α-BTX]”?
Bmax [5]: 965.8±28.9 fmol/mg protein; Kd [5]: 4.68 ± 0.61 nM

B1: [125I]alpha-bungarotoxin (ligand)
chain: IVCHTTATSPISAVTCPPGENLCYRKMWCDAFCSSRGKVVELGCAATCPSKKPYEEVTCCSTDKCNPHPKQRPG
What does the source list for B1?
Kd [7]: 4.68 nM; Kd [8]: 4.66 nM and 9.06 nM and 12 nM and 4.91 nM

B2: T-AChE: full-length tailed isoform of acetylcholinesterase (protein)
chain: EGREDAELLVTVRGGRLRGIRLKTPGGPVSAFLGIPFAEPPMGPRRFLPPEPKQPWSGVVDATTFQSVCYQYVDTLYPGFEGTEMWNPNRELSEDCLYLNVWTPYPRPTSPTPVLVWIYGGGFYSGASSLDVYDGRFLVQAERTVLVSMNYRVGAFGFLALPGSREAPGNVGLLDQRLALQWVQENVAAFGGDPTSVTLFGESAGAASVGMHLLSPPSRGLFHRAVLQSGAPNGPWATVGMGEARRRATQLAHLVGCPPGGTGGNDTELVACLRTRPAQVLVNHEWHVLPQESVFRFSFVPVVDGDFLSDTPEALINAGDFHGLQVLVGVVKDEGSYFLVYGAPGFSKDNESLISRAEFLAGVRVGVPQVSDLAAEAVVLHYTDWLHPEDPARLREALSDVVGDHNVVCPVAQLAGRLAAQGARVYAYVFEHRASTLSWPLWMGVPHGYEIEFIFGIPLDPSRNYTAEEKIFAQRLMRYWANFARTGDPNEPRDPKAPQWPPYTAGAQQYVSLDLRPLEVRRGLRAQACAFWNRFLPKLLSATDTLDEAERQWKAEFHRWSSYMVHWKNQFDHYSKQDRCSDL
What does the source list for B2?
effect on [125I]α-BTX binding to the α7-nAChR ([5]; live cells, controls (Fig. 2D)): neither full-length T-AChE, nor truncated T548, had an effect; change in α7-nAChR mRNA expression ([2]; 10 nM protein, 24 hr): neither the full length T-AChE molecule (p = 0.3419), nor the truncated T548 (p = 0.1778), effected a significant change

Reference: paper PMC2654408 (PLoS ONE, 2009)
